According to patent publication US20170022201A1, “MACROCYLIC PYRIDINE DERIVATIVES” (Janssen Pharmaceutica NV, priority 2014, published 2017):

Assays:
[1] = target: T1, eEF2K (Homo sapiens, UniProt O00418); test: EF2K cell-based assay (P-EF2 AlphaLISA, 2-deoxyglucose stimulated MCF10A cells); conditions: 2.5 mM 2-deoxyglucose 4 h, phosphorylation of EF2 at Thr 56, pIC50 = -log IC50 (M); for IC50: read-out: eEF2K_C_PThr56 pIC50 (converted)
T1 construct: in the immortalized epithelial breast cell lines, MCF10A; host or cells: MCF10A immortalized breast epithelial cells
T1 sequence (O00418 1-725): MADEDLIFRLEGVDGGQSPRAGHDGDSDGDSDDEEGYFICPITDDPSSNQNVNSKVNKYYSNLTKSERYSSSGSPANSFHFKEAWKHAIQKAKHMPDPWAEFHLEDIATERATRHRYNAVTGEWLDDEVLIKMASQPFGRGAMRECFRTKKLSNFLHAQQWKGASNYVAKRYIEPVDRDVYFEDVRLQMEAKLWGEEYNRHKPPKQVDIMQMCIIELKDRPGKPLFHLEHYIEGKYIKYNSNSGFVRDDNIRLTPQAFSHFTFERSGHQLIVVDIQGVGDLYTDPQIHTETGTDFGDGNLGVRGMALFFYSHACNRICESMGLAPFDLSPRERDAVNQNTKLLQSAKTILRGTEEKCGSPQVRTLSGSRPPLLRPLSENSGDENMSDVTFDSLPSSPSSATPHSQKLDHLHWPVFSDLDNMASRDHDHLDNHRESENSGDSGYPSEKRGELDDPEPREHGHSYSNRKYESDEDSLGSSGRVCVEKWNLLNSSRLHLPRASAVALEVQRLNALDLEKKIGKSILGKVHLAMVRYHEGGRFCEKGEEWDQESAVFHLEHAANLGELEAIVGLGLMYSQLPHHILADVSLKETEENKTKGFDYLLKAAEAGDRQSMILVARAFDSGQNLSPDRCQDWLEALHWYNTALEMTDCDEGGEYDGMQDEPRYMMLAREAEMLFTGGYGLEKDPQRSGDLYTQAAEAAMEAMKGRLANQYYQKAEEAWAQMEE
Procedure, shortened: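 MCF10A cells pretreated with compound for 1 h, then stimulated with 2.5 mM 2-deoxyglucose for 4 h to deplete ATP and activate AMPK. Phospho-EF2 in lysates measured by AlphaLISA.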

[2] = target: T2, EF2K (Homo sapiens, UniProt O00418); test: Biochemical EF2K lysate-based kinase assay (AlphaLISA p-eEF2 Thr56); conditions: LN-229 cell lysates, 10 mM ATP, pH 6.6; pIC50 = -log IC50 (M); read-out: eEF2K_C_alphalisa pIC50 (converted)
T2 construct: host or cells: LN-229 glioblastoma cell lysate
T2 sequence (O00418 1-725): T1 sequence (O00418 1-725)
Procedure, shortened: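 LN-229 glioblastoma lysate supplied both EF2K and eEF2 substrate; compound incubated with lysate 15 minutes at room temperature at pH 6.6 with 10 mM Mg2+ and 10 mM ATP, then stopped with excess EDTA. Thr56-phosphorylated eEF2 detected by sandwich AlphaLISA, final read after overnight standing.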

[3] = target: PIK3C3 lipid kinase (Homo sapiens, UniProt Q8NEB9); test: Biochemical Vps34 lipid kinase assay (ADP-Glo); conditions: 20 μM ATP; for remaining activity at 1 µM: 1 h, read-out: VPS34_1microM_%ofcntrl; for remaining activity at 1 µM / VPS34_1microM_%ofcntrl: single dose 1 μM, residual activity compared to control (DMSO); for IC50: serial dilution 10 μM to 0.3 nM, pIC50 = -log IC50 (M)
PIK3C3 lipid kinase, sequence (Q8NEB9 whole entry): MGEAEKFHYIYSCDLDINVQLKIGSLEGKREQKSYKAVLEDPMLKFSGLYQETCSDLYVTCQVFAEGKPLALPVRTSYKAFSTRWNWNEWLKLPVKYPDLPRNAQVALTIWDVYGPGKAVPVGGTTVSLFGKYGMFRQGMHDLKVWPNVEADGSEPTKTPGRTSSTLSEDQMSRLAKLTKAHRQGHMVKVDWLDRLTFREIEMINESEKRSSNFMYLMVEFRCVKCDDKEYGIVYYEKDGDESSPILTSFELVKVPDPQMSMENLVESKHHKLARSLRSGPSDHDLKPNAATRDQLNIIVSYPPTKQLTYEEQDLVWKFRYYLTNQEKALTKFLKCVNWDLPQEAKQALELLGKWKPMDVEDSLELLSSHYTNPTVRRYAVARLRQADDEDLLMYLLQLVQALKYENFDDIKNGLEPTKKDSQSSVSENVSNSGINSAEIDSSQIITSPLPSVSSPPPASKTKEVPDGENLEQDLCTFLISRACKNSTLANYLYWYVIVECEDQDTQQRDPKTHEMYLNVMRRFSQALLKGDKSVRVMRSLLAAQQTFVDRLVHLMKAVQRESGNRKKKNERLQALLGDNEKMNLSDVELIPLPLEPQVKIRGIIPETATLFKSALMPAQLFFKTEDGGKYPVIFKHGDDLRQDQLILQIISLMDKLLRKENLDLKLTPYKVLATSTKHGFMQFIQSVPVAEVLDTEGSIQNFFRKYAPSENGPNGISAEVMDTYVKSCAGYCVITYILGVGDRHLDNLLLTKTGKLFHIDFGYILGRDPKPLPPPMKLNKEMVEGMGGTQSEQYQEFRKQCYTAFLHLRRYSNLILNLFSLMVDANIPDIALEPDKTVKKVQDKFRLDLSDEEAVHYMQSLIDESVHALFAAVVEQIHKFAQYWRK
Description: A non-radiometric kinase assay (ADP-Glo™ Assay, Promega, Madison, Wi, USA) was used for measuring the kinase activity of the PIK3C3 lipid kinase. All kinase assays were performed in 96-well half-area microtiter plates in a 25 μl reaction volume. The reaction cocktail was pipetted in 3 steps in the following order: • 10 μl of ATP solution (in assay buffer, see below) • 5 μl of test sample in 5% DMSO 10 μl of enzyme/substrate mixture
All lipid kinase assays contained 50 mM HEPES (4-(2-hydroxyethyl)-1-piperazineethanesulfonic acid)—NaOH, pH 7.5, 1 mM EGTA ((ethylene glycol tetraacetic acid), 100 mM NaCl, 0.03% CHAPS (3-[(3-Cholamidopropyl) dimethylammonio]-1-propanesulfonate), 2 mM DTT (Dithiothreitol), 20 μM ATP (corresponding to the apparent ATP-Km), kinase (7.6 nM) and substrate (50 μM). The assay for PIK3C3 additionally contained 3 mM MnCl2.
The reaction cocktails were incubated at 30° C. for 60 minutes. The reaction was stopped with 25 μl ADP-Glo™ reagent per well. Plates were incubated for 40 minutes at room temperature, followed by addition of 50 μl kinase detection reagent per well and incubation for 60 minutes at room temperature. Signal was determined with a microplate luminescence reader (Victor, Perkin Elmer). The assay was either performed using a single dose of compound (1 μM final concentration in the assay reaction) with resulting data expressed as residual activity compared to control (DMSO), or using a serial (half-log) dilution of compounds starting at 10 μM and down to 0.3 nM (final concentrations in the assay) with data expressed as the pIC50.

Row | IC50 [1] [M] | IC50 [2] [M] | melting point [°C] | remaining activity at 1 µM [3] [%] | IC50 [3] [M] | eEF2K_C_PThr56 pIC50 [1] | VPS34_1microM_%ofcntrl [3] [%] | SMILES
1 | 2.45e-05 | 3.31e-07 | 162 | 32.1 |  |  |  | CC1CN2CCN1Cc1cccc(c1)Nc1cc(ccn1)-c1ccc(nc1)NCCCNC(=O)C2 (stereo not shown) [Compound 71]
2 | 1.62e-05 | 1.12e-07 | 267.8 to 267.9 | 12.5 | 1.07e-07 |  |  | O=C1CN2CCN(Cc3cccc(c3)Nc3cc(ccn3)-c3cnc(nc3)NCCCN1)C(CO)C2 (single isomer, unassigned) [Compound 7]
3 | > 3.02e-05 | > 3.02e-05 | 240 | 50.4 |  |  |  | COCCCN1CCCN(C)C(=O)CN2CCN(CC2)Cc2cccc(c2)Nc2cc(ccn2)-c2cnc1nc2 [Compound 14]
4 | 2.88e-05 | 7.59e-07 | 255.3 to 256.8 | 22.4 | 5.89e-07 |  |  | O=C1CN2CCC(CC2)Nc2cccc(c2)Nc2cc(ccn2)-c2cnc(nc2)NCCCN1 [Compound 106]
5 | > 3.02e-05 | > 3.02e-05 | 240 | 67 |  |  |  | COCCN1CCN(C)C(=O)CN2CCN(CC2)Cc2cccc(c2)Nc2cc(ccn2)-c2cnc1nc2 [Compound 15]
6 |  | 2.75e-07 |  |  |  | <4.52 | 58.90 | O=C1CN2CCN(CC2)Cc2cccc(c2)Nc2cc(ccn2)-c2cnc(nc2)NC(C(=O)O)CCN1 (stereo not shown) [Compound 119]
7 | > 1e-05 | 2.34e-06 |  |  | 6.03e-07 |  |  | O=C1CN2CC3CCC2CN3Cc2cccc(c2)Nc2cc(ccn2)-c2cnc(nc2)NCCCN1 (single isomer, unassigned) [Compound 25]
8 | 3.55e-07 | 6.76e-09 |  |  | 3.31e-07 |  |  | O=C1NCCCNc2ncc(cn2)-c2ccnc(c2)Nc2cccc(c2)CN2CCN(CC2)C12CC2 [Compound 107]
9 | ~2.95e-06 | 9.55e-08 |  |  | 1.74e-06 |  |  | CC1c2cccc(c2)Nc2cc(ccn2)-c2cnc(nc2)NCCCNC(=O)C2(CC2)N2CCN1CC2 (single isomer, unassigned) [Compound 23]
10 | 2.57e-06 | 4.17e-08 |  |  | 1.66e-07 |  | 9.64 | O=C1CN2CCN(Cc3cccc(c3)Nc3cc(ccn3)-c3cnc(nc3)NCCCN1)C(CO)C2 (single isomer, unassigned) [Compound 8]
11 | > 1e-05 | 2.24e-05 |  |  | > 1e-05 |  |  | O=C1CN2CCN(Cc3cccc(c3)Nc3cc(ccn3)-c3cnc(nc3)NCCCN1)CC21CC1 [Compound 28]
12 | 7.08e-07 | 3.39e-08 |  |  | 2.88e-07 |  |  | CC1(C)CN2CCN1Cc1cccc(c1)Nc1cc(ccn1)-c1cnc(nc1)NCCCNC(=O)C2 [Compound 19]
13 | > 3.02e-05 | ~1.51e-05 | 143 | 53.7 |  |  |  | O=C1CNCCNc2ccc(cn2)-c2ccnc(c2)Nc2cccc(c2)CN2CCN1CC2 [Compound 144]
14 | 3.02e-07 | 3.39e-09 |  |  | 2.63e-07 |  |  | O=C1NCCC2CC(O)CN2c2ncc(cn2)-c2ccnc(c2)Nc2cccc(c2)CN2CCN(CC2)C12CC2 (stereo not shown) [Compound 56]
15 | 6.61e-07 | 8.71e-09 |  | 42.3 |  |  |  | [N-]=[N+]=N[C@H]1C[C@H]2CCNC(=O)C3(CC3)N3CCN(CC3)Cc3cccc(c3)Nc3cc(ccn3)-c3cnc(nc3)N2C1 [Compound 83]
16 | 8.51e-07 | 3.47e-08 |  |  | 4.17e-07 |  |  | CC1CN2CCN1Cc1cccc(c1)Nc1cc(ccn1)-c1cnc(nc1)N1CC(O)CC1CCNC(=O)C2 (stereo not shown) [Compound 59]
17 | 4.79e-06 | 6.61e-08 |  | 86.8 |  |  |  | CC1CN2CCN1Cc1cccc(c1)Nc1cc(ccn1)-c1cnc(nc1)N1CC(O)CC1CCNC(=O)C2 (stereo not shown) [Compound 60]
18 | > 3.02e-05 | 2.82e-07 |  | 52.7 |  |  |  | O=C1CN2CCN(CC2)Cc2cccc(c2)Nc2cc(ccn2)-c2cnc(nc2)NCCS(=O)(=O)N1 [Compound 126]
19 | > 3.02e-05 | 5.62e-06 | 252 | 72.6 |  |  |  | O=C1CN2CCN(CC2)Cc2cccc(c2)Nc2cc(ccn2)-c2ccc(nc2)NCCN1 [Compound 70]
20 | 1.23e-05 | 2.75e-07 |  | 45.7 |  |  |  | O=C1CN2CCN(CC2)Cc2cccc(c2)Nc2cc(ccn2)-c2cnc(cn2)NCCCN1 [Compound 39]
21 | > 1e-05 | 3.39e-07 |  | 68 |  |  |  | NS(=O)(=O)NC1CC2CCNC(=O)CN3CCN(CC3)Cc3cccc(c3)Nc3cc(ccn3)-c3cnc(nc3)N2C1 (stereo not shown) [Compound 86]
22 | 2.24e-06 | 3.72e-08 |  |  |  |  | 43.17 | N#CC1CC2CCNC(=O)CN3CCN(CC3)Cc3cccc(c3)Nc3cc(ccn3)-c3cnc(nc3)N2C1 (stereo not shown) [Compound 78]
23 | 1.41e-05 | 1.91e-05 |  | 39.5 |  |  |  | CNC(=O)C1CCNC(=O)CN2CCN(CC2)Cc2cccc(c2)Nc2cc(ccn2)-c2cnc(nc2)N1 (stereo not shown) [Compound 122]
24 | 9.77e-07 | 1.62e-08 |  |  | 7.24e-07 |  |  | CC1CN2CCN1Cc1cccc(c1)Nc1cc(ccn1)-c1cnc(nc1)NCCCNC(=O)C2 (stereo not shown) [Compound 36]
25 | 1.91e-05 | 2.69e-06 |  | 33.5 |  |  |  | COC(=O)C1CCNC(=O)CN2CCN(CC2)Cc2cccc(c2)Nc2cc(ccn2)-c2cnc(nc2)N1 (stereo not shown) [Compound 116]
26 | ~1.23e-06 | 1.07e-08 |  |  | 2.57e-08 |  |  | O=C1CN2CCN(Cc3cccc(c3)Nc3cc(ccn3)-c3cnc(nc3)NCCCN1)C1(CC1)C2 [Compound 27]
27 | 4.17e-07 | 2.88e-07 |  | 74.5 |  |  |  | O=C1CN2CCN(CC2)Cc2cccc(c2)Nc2cc(ccn2)-c2cnc(nc2)CN(CC2CC2)CCN1 [Compound 128]
28 | 1.58e-06 | 3.55e-08 |  | 40 |  |  |  | O=C1CN2CCN(CC2)Cc2cccc(c2)Nc2cc(ccn2)-c2ccc(nc2)N2CCCC2CCN1 (single isomer, unassigned) [Compound 142]
